According to ChEMBL document CHEMBL3046517, “Synthesis and antimicrobial study of fluoroquinolone-based 4-thiazolidinones” (2010):
Values after ≈ are worked out from the molar mass of the structure shown.

What was measured:
Format in all cases: functional
Aspergillus niger = assay: Antifungal activity against Aspergillus niger by broth dilution method
Staphylococcus aureus = assay: Antibacterial activity against Staphylococcus aureus by broth dilution method
Pseudomonas aeruginosa = assay: Antibacterial activity against Pseudomonas aeruginosa by broth dilution method
Aspergillus clavatus = assay: Antifungal activity against Aspergillus clavatus by broth dilution method
Escherichia coli = assay: Antibacterial activity against Escherichia coli by broth dilution method
Candida albicans = assay: Antifungal activity against Candida albicans by broth dilution method
Streptococcus pyogenes = assay: Antibacterial activity against Streptococcus pyogenes by broth dilution method

| Compound | MIC (Aspergillus niger) [µg/mL] | MIC (Staphylococcus aureus) [µg/mL] | MIC (Pseudomonas aeruginosa) [µg/mL] | MIC (Aspergillus clavatus) [µg/mL] | MIC (Escherichia coli) [µg/mL] | MIC (Candida albicans) [µg/mL] | MIC (Streptococcus pyogenes) [µg/mL] |
| --- | --- | --- | --- | --- | --- | --- | --- |
| COc1ccc(N2CCN(c3cc4c(cc3F)c(=O)c(C(=O)N/N=C\c3cccc([N+](=O)[O-])c3)cn4C3CC3)CC2)cc1 | 1000 (≈ 1710 µM) | 1000 (≈ 1710 µM) | 500 (≈ 855 µM) | 1000 (≈ 1710 µM) | 1000 (≈ 1710 µM) | 1000 (≈ 1710 µM) | 500 (≈ 855 µM) |
| O=C(N/N=C\c1ccccc1O)c1cn(C2CC2)c2cc(Cl)c(F)cc2c1=O | 500 (≈ 1250 µM) | 500 (≈ 1250 µM) | 500 (≈ 1250 µM) | 500 (≈ 1250 µM) | 500 (≈ 1250 µM) | 500 (≈ 1250 µM) | 1000 (≈ 2500 µM) |
| COc1ccc(N2CCN(c3cc4c(cc3F)c(=O)c(C(=O)N/N=C\c3ccc(Cl)cc3)cn4C3CC3)CC2)cc1 | 1000 (≈ 1740 µM) | 1000 (≈ 1740 µM) | 1000 (≈ 1740 µM) | 1000 (≈ 1740 µM) | 1000 (≈ 1740 µM) | 1000 (≈ 1740 µM) | 500 (≈ 871 µM) |
| O=C(N/N=C\c1ccccc1Cl)c1cn(C2CC2)c2cc(Cl)c(F)cc2c1=O | 500 (≈ 1200 µM) | 200 (≈ 478 µM) | 100 (≈ 239 µM) | 500 (≈ 1200 µM) | 50 (≈ 120 µM) | 1000 (≈ 2390 µM) | 100 (≈ 239 µM) |
| COC1=CC(=O)C[C@@H](C)[C@]12Oc1c(Cl)c(OC)cc(OC)c1C2=O [GRISEOFULVIN] | 100 (≈ 283 µM) | – | – | 100 (≈ 283 µM) | – | 500 (≈ 1420 µM) | – |
| O=C(N[C@H](CO)[C@H](O)c1ccc([N+](=O)[O-])cc1)C(Cl)Cl [CHLORAMPHENICOL] | – | 50 (≈ 155 µM) | 50 (≈ 155 µM) | – | 50 (≈ 155 µM) | – | 50 (≈ 155 µM) |
| COc1ccc(N2CCN(c3cc4c(cc3F)c(=O)c(C(=O)NN3C(=O)CSC3c3ccc(F)cc3)cn4C3CC3)CC2)cc1 (stereo unspecified) | 1000 (≈ 1580 µM) | 1000 (≈ 1580 µM) | 500 (≈ 792 µM) | 1000 (≈ 1580 µM) | 1000 (≈ 1580 µM) | 1000 (≈ 1580 µM) | 1000 (≈ 1580 µM) |
| NNC(=O)c1cn(C2CC2)c2cc(Cl)c(F)cc2c1=O | 500 (≈ 1690 µM) | 500 (≈ 1690 µM) | 500 (≈ 1690 µM) | 500 (≈ 1690 µM) | 500 (≈ 1690 µM) | 200 (≈ 676 µM) | 500 (≈ 1690 µM) |
| O=C(N/N=C\c1ccccc1)c1cn(C2CC2)c2cc(Cl)c(F)cc2c1=O | 1000 (≈ 2610 µM) | 500 (≈ 1300 µM) | 1000 (≈ 2610 µM) | 1000 (≈ 2610 µM) | 500 (≈ 1300 µM) | 500 (≈ 1300 µM) | 1000 (≈ 2610 µM) |
| COc1ccc(N2CCN(c3cc4c(cc3F)c(=O)c(C(=O)N/N=C\c3ccc(O)cc3)cn4C3CC3)CC2)cc1 | 1000 (≈ 1800 µM) | 500 (≈ 900 µM) | 200 (≈ 360 µM) | 1000 (≈ 1800 µM) | 500 (≈ 900 µM) | 1000 (≈ 1800 µM) | 1000 (≈ 1800 µM) |
| O=C(O)c1cn(C2CC2)c2cc(N3CCNCC3)c(F)cc2c1=O [CIPROFLOXACIN] | – | 50 (≈ 151 µM) | – | – | 25 (≈ 75.4 µM) | – | 50 (≈ 151 µM) |
| O=C(N/N=C\c1ccc(Cl)cc1)c1cn(C2CC2)c2cc(Cl)c(F)cc2c1=O | 500 (≈ 1200 µM) | 1000 (≈ 2390 µM) | 1000 (≈ 2390 µM) | 500 (≈ 1200 µM) | 1000 (≈ 2390 µM) | 1000 (≈ 2390 µM) | 1000 (≈ 2390 µM) |
| COc1ccc(N2CCN(c3cc4c(cc3F)c(=O)c(C(=O)NN3C(=O)CSC3c3ccc(O)c(OC)c3)cn4C3CC3)CC2)cc1 (stereo unspecified) | > 1000 | 1000 (≈ 1520 µM) | 1000 (≈ 1520 µM) | 1000 (≈ 1520 µM) | 1000 (≈ 1520 µM) | 500 (≈ 758 µM) | 1000 (≈ 1520 µM) |
| COc1ccc(N2CCN(c3cc4c(cc3F)c(=O)c(C(=O)N/N=C\c3ccc(O)c(OC)c3)cn4C3CC3)CC2)cc1 | 1000 (≈ 1710 µM) | 500 (≈ 854 µM) | 200 (≈ 342 µM) | 1000 (≈ 1710 µM) | 150 (≈ 256 µM) | 1000 (≈ 1710 µM) | 500 (≈ 854 µM) |
| COc1ccc(N2CCN(c3cc4c(cc3F)c(=O)c(C(=O)N/N=C\c3ccccc3Cl)cn4C3CC3)CC2)cc1 | > 1000 | 500 (≈ 871 µM) | 100 (≈ 174 µM) | > 1000 | 100 (≈ 174 µM) | 500 (≈ 871 µM) | 100 (≈ 174 µM) |
| COc1ccc(N2CCN(c3cc4c(cc3F)c(=O)c(C(=O)NN3C(=O)CSC3c3ccccc3Cl)cn4C3CC3)CC2)cc1 (stereo unspecified) | > 1000 | 500 (≈ 771 µM) | 500 (≈ 771 µM) | 1000 (≈ 1540 µM) | 1000 (≈ 1540 µM) | 1000 (≈ 1540 µM) | 100 (≈ 154 µM) |
| COc1cc(/C=N\NC(=O)c2cn(C3CC3)c3cc(Cl)c(F)cc3c2=O)ccc1O | 500 (≈ 1160 µM) | 200 (≈ 465 µM) | 200 (≈ 465 µM) | 1000 (≈ 2330 µM) | 100 (≈ 233 µM) | 100 (≈ 233 µM) | 500 (≈ 1160 µM) |
| GENTAMICIN | – | 0.25 | 1 | – | 0.05 | – | 0.5 |
| COc1ccc(/C=N\NC(=O)c2cn(C3CC3)c3cc(Cl)c(F)cc3c2=O)cc1 | > 1000 | 500 (≈ 1210 µM) | 500 (≈ 1210 µM) | > 1000 | 200 (≈ 483 µM) | 500 (≈ 1210 µM) | 1000 (≈ 2420 µM) |
| O=C(O)c1cn(C2CC2)c2cc(Cl)c(F)cc2c1=O | 1000 (≈ 3550 µM) | 100 (≈ 355 µM) | 100 (≈ 355 µM) | 1000 (≈ 3550 µM) | 100 (≈ 355 µM) | 500 (≈ 1780 µM) | 100 (≈ 355 µM) |
